{
  "source": "ChEMBL document CHEMBL5528012",
  "about": "“Discovery of novel deoxyvasicinone derivatives with benzenesulfonamide substituents as multifunctional agents against Alzheimer's disease” (Eur J Med Chem, 2024)",
  "key": {"Cholinesterase": {"target": "Cholinesterase (Equus caballus, UniProt P81908)", "sequence (P81908 whole entry)": "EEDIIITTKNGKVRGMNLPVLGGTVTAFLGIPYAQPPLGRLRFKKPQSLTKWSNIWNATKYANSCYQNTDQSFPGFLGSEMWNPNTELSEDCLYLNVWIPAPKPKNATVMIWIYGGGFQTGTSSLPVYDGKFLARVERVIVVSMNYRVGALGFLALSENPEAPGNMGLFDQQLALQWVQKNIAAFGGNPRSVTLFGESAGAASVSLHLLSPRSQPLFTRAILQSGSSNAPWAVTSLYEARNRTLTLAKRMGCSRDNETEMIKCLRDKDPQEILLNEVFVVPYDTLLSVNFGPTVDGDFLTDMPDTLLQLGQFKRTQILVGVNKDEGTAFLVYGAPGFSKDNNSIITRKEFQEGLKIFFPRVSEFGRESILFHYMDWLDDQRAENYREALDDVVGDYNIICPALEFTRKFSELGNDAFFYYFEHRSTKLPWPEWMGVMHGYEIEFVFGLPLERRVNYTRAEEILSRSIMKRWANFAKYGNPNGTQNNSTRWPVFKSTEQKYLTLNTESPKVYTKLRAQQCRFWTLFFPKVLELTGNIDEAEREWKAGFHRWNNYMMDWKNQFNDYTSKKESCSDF", "assay": "Inhibition of equine serum BuChE using S-butyrylthiocholine iodide as substrate pre-incubated for 30 mins followed by substrate addition and measured after 5 mins by DTNB reagent based Ellman's method"}, "Acetylcholinesterase [1]": {"target": "Acetylcholinesterase (Electrophorus electricus, UniProt O42275)", "sequence (O42275 whole entry)": "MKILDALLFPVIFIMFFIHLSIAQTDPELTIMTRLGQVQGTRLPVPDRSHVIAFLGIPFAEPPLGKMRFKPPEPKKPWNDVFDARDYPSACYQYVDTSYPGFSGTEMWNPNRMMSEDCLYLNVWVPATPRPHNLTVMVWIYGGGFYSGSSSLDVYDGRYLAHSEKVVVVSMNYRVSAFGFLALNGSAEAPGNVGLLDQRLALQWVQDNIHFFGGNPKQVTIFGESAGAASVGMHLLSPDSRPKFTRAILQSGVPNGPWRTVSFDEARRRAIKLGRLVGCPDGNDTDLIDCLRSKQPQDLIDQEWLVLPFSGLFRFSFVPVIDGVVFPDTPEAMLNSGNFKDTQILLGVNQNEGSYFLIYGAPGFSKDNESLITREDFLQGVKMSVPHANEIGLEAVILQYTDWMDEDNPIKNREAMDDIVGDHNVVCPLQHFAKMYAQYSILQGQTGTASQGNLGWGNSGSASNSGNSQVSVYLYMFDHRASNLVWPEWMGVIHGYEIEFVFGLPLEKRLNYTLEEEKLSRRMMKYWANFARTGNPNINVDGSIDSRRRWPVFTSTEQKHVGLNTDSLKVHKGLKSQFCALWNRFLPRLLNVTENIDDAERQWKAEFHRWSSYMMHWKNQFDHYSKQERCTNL", "assay": "Inhibition of electric eel AChE using acetylthiocholine iodide as substrate pre-incubated for 30 mins followed by substrate addition and measured after 5 mins by DTNB reagent based Ellman's method"}, "in vitro": {"assay": "in vitro", "conditions": "PAMPA, pH 7.4", "description": "Permeability of the compound at 30 to 50 uM at pH 7.4 by PAMPA-BBB assay"}, "Acetylcholinesterase [2]": {"target": "Acetylcholinesterase (Homo sapiens, UniProt P22303)", "sequence (P22303 whole entry)": "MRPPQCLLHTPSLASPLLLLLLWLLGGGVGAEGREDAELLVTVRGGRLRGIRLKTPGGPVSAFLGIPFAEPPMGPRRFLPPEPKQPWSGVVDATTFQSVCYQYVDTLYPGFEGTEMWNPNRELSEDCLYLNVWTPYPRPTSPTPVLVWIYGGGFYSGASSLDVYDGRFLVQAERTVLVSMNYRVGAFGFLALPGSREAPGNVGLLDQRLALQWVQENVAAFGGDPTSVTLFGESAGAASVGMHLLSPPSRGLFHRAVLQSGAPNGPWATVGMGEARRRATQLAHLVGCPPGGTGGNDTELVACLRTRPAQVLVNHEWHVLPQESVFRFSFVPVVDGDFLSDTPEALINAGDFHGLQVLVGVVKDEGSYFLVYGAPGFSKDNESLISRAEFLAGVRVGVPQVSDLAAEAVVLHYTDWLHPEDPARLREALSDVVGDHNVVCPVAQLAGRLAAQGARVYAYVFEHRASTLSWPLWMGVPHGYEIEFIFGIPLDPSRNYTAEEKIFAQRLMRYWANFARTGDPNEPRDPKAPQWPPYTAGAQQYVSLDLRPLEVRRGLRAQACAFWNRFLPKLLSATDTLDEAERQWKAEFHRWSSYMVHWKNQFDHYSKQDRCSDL", "assay": "Inhibition of AChE (unknown origin)"}},
  "data": [
    {"smiles": "O=C(CNS(=O)(=O)c1ccccc1Cl)Nc1ccc2c(=O)n3c(nc2c1)CCC3", "values": [
      {"measurement": "IC50", "setting": "Cholinesterase", "value": "> 50", "unit": "µM"},
      {"measurement": "IC50", "setting": "Acetylcholinesterase [1]", "value": 2.57, "unit": "µM"}
    ]},
    {"smiles": "CNC(=C[N+](=O)[O-])NCCSCc1ccc(CN(C)C)o1", "note": "[RANITIDINE]", "values": [
      {"measurement": "Papp at 50 µM", "setting": "in vitro", "value": 0.06, "unit": "×10⁻⁶ cm/s"}
    ]},
    {"smiles": "CC(C)c1ccc(S(=O)(=O)NCC(=O)Nc2ccc3c(=O)n4c(nc3c2)CCC4)cc1", "values": [
      {"measurement": "IC50", "setting": "Cholinesterase", "value": "> 50", "unit": "µM"},
      {"measurement": "IC50", "setting": "Acetylcholinesterase [1]", "value": 12.5, "unit": "µM"}
    ]},
    {"smiles": "Cc1ccc(S(=O)(=O)NCC(=O)Nc2ccc3c(=O)n4c(nc3c2)CCC4)cc1", "values": [
      {"measurement": "IC50", "setting": "Cholinesterase", "value": "> 50", "unit": "µM"},
      {"measurement": "IC50", "setting": "Acetylcholinesterase [1]", "value": 17.6, "unit": "µM"}
    ]},
    {"smiles": "O=C(CNS(=O)(=O)c1ccccc1Br)Nc1ccc2c(=O)n3c(nc2c1)CCC3", "values": [
      {"measurement": "IC50", "setting": "Cholinesterase", "value": "> 50", "unit": "µM"},
      {"measurement": "IC50", "setting": "Acetylcholinesterase [1]", "value": 4.17, "unit": "µM"}
    ]},
    {"smiles": "O=C(CNS(=O)(=O)c1ccccc1F)Nc1ccc2c(=O)n3c(nc2c1)CCC3", "values": [
      {"measurement": "IC50", "setting": "Cholinesterase", "value": "> 50", "unit": "µM"},
      {"measurement": "IC50", "setting": "Acetylcholinesterase [1]", "value": 5.25, "unit": "µM"}
    ]},
    {"smiles": "COc1ccc(S(=O)(=O)NCC(=O)Nc2ccc3c(=O)n4c(nc3c2)CCC4)c(OC)c1", "values": [
      {"measurement": "IC50", "setting": "Cholinesterase", "value": "> 50", "unit": "µM"},
      {"measurement": "IC50", "setting": "Acetylcholinesterase [1]", "value": 9.19, "unit": "µM"}
    ]},
    {"smiles": "O=C(CNS(=O)(=O)c1ccccc1)Nc1ccc2c(=O)n3c(nc2c1)CCC3", "values": [
      {"measurement": "IC50", "setting": "Cholinesterase", "value": 48.5, "unit": "µM"},
      {"measurement": "IC50", "setting": "Acetylcholinesterase [1]", "value": 5.39, "unit": "µM"}
    ]},
    {"smiles": "O=C(CNS(=O)(=O)c1cc(Cl)c(F)cc1F)Nc1ccc2c(=O)n3c(nc2c1)CCC3", "values": [
      {"measurement": "IC50", "setting": "Cholinesterase", "value": "> 50", "unit": "µM"},
      {"measurement": "IC50", "setting": "Acetylcholinesterase [1]", "value": "> 50", "unit": "µM"}
    ]},
    {"smiles": "O=C(CNS(=O)(=O)c1ccc(F)cc1)Nc1ccc2c(=O)n3c(nc2c1)CCC3", "values": [
      {"measurement": "IC50", "setting": "Cholinesterase", "value": "> 50", "unit": "µM"},
      {"measurement": "IC50", "setting": "Acetylcholinesterase [1]", "value": 5.68, "unit": "µM"}
    ]},
    {"smiles": "CC(C)c1cc(C(C)C)c(S(=O)(=O)NCC(=O)Nc2ccc3c(=O)n4c(nc3c2)CCC4)c(C(C)C)c1", "values": [
      {"measurement": "IC50", "setting": "Cholinesterase", "value": "> 50", "unit": "µM"},
      {"measurement": "IC50", "setting": "Acetylcholinesterase [1]", "value": "> 50", "unit": "µM"}
    ]},
    {"smiles": "O=C(CNS(=O)(=O)c1ccc(Br)cc1)Nc1ccc2c(=O)n3c(nc2c1)CCC3", "values": [
      {"measurement": "IC50", "setting": "Cholinesterase", "value": "> 50", "unit": "µM"},
      {"measurement": "IC50", "setting": "Acetylcholinesterase [1]", "value": "> 50", "unit": "µM"}
    ]},
    {"smiles": "COc1ccc(S(=O)(=O)NCC(=O)Nc2ccc3c(=O)n4c(nc3c2)CCC4)cc1", "values": [
      {"measurement": "IC50", "setting": "Cholinesterase", "value": 32.9, "unit": "µM"},
      {"measurement": "IC50", "setting": "Acetylcholinesterase [1]", "value": 5.58, "unit": "µM"}
    ]},
    {"smiles": "O=C(CNS(=O)(=O)c1ccc(C(F)(F)F)cc1)Nc1ccc2c(=O)n3c(nc2c1)CCC3", "values": [
      {"measurement": "IC50", "setting": "Cholinesterase", "value": "> 50", "unit": "µM"},
      {"measurement": "IC50", "setting": "Acetylcholinesterase [1]", "value": 24.8, "unit": "µM"}
    ]},
    {"smiles": "COc1ccc2[nH]c(C(=O)Nc3ccc4nc5n(c(=O)c4c3)CCC5)cc2c1", "values": [
      {"measurement": "IC50", "setting": "Acetylcholinesterase [2]", "value": 0.12, "unit": "µM"}
    ]},
    {"smiles": "COc1ccc(Br)cc1S(=O)(=O)NCC(=O)Nc1ccc2c(=O)n3c(nc2c1)CCC3", "values": [
      {"measurement": "IC50", "setting": "Cholinesterase", "value": "> 50", "unit": "µM"},
      {"measurement": "IC50", "setting": "Acetylcholinesterase [1]", "value": 5.22, "unit": "µM"}
    ]},
    {"smiles": "O=C(CNS(=O)(=O)c1cccc(Br)c1)Nc1ccc2c(=O)n3c(nc2c1)CCC3", "values": [
      {"measurement": "IC50", "setting": "Cholinesterase", "value": "> 50", "unit": "µM"},
      {"measurement": "IC50", "setting": "Acetylcholinesterase [1]", "value": 7.88, "unit": "µM"}
    ]},
    {"smiles": "NS(=O)(=O)c1cc2c(cc1Cl)N=CNS2(=O)=O", "note": "[CHLOROTHIAZIDE]", "values": [
      {"measurement": "Papp at 50 µM", "setting": "in vitro", "value": 1.36, "unit": "×10⁻⁶ cm/s"}
    ]},
    {"smiles": "O=C(CNS(=O)(=O)c1ccccc1OC(F)(F)F)Nc1ccc2c(=O)n3c(nc2c1)CCC3", "values": [
      {"measurement": "IC50", "setting": "Cholinesterase", "value": "> 50", "unit": "µM"},
      {"measurement": "IC50", "setting": "Acetylcholinesterase [1]", "value": 0.78, "unit": "µM"}
    ]}
  ]
}
